Laboratory results: PMC12518996 (Frontiers in Pharmacology, 2025)

Experiments:
Format in all cases: in vitro ADME
FMO1 = target: T1, FMO1 (Homo sapiens, UniProt Q01740); assay: Metabolite formation by recombinant human FMO1; details: trazodone 4 μM; 37 °C, 40 min
T1 sequence (Q01740 1-532): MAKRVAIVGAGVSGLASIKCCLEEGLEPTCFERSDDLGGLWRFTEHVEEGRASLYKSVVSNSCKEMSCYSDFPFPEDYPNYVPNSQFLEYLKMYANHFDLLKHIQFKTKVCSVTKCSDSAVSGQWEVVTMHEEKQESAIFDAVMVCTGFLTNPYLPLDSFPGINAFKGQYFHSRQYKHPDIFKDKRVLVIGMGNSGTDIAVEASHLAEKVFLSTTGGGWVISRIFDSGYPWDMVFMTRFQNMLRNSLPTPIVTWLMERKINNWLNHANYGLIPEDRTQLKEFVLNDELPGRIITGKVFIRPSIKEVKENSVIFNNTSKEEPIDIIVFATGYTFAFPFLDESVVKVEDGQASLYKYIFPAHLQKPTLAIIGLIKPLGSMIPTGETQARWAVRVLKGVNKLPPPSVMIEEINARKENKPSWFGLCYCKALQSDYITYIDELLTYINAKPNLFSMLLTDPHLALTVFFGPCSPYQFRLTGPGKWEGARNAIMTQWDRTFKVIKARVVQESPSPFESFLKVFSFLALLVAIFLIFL

FMO3 = target: T2, FMO3 (Homo sapiens, UniProt P31513); assay: Metabolite formation by recombinant human FMO3; details: trazodone 4 μM; 37 °C, 40 min
T2 sequence (P31513 1-532): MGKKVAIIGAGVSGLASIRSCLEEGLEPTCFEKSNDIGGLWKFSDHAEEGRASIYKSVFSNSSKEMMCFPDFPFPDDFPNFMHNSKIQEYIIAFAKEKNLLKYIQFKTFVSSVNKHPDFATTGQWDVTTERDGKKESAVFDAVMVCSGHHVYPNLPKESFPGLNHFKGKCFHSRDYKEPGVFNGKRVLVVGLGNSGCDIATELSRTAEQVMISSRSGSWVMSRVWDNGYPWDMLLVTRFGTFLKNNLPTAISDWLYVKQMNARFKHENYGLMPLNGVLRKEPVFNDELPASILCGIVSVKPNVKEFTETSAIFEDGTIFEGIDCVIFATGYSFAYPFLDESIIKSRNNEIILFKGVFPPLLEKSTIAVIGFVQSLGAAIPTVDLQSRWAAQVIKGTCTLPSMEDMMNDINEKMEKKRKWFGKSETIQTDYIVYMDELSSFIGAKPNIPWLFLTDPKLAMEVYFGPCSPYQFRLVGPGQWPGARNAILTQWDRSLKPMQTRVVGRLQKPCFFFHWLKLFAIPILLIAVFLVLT

CYP2C8 = target: T3, CYP2C8 (Homo sapiens, UniProt P10632); assay: Metabolite formation by recombinant human CYP2C8; details: trazodone 4 μM; NADPH; 37 °C, 40 min
T3 sequence (P10632 1-490): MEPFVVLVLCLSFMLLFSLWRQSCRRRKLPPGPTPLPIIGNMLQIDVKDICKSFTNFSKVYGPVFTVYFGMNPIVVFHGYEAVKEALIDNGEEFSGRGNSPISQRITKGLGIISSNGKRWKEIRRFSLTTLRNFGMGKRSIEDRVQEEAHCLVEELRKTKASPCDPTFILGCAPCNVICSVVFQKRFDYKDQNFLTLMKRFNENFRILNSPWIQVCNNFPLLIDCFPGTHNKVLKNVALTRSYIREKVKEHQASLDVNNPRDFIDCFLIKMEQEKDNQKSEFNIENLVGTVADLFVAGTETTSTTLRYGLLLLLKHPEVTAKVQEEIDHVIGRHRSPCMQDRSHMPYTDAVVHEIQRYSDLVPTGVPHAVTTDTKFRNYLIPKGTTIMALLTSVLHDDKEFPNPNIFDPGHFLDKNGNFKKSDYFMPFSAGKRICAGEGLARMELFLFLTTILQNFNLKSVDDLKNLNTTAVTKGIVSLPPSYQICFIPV
Procedure: (§1) To confirm the role of individual CYP isoforms in metabolizing trazodone, recombinant human and rat CYP enzymes were employed in separate incubations. […] Each reaction was terminated with acetonitrile, centrifuged, and the supernatant was analyzed by identical UHPLC-Orbitrap setup outlined in §2.2, allowing direct comparison of metabolite spectra across all in-vitro systems. […] This procedure helped confirm the contributions of individual isoforms to specific biotransformation reactions.

CYP2C9 = CYP2C9 (Homo sapiens, UniProt P11712); assay: Metabolite formation by recombinant human CYP2C9; details: trazodone 4 μM; NADPH; 37 °C, 40 min
Procedure: (§2) Each reaction was terminated with acetonitrile, centrifuged, and the supernatant was analyzed by identical UHPLC-Orbitrap setup outlined in §2.2, allowing direct comparison of metabolite spectra across all in-vitro systems.

CYP3A5 = CYP3A5 (Homo sapiens, UniProt P20815); assay: Metabolite formation by recombinant human CYP3A5; details: trazodone 4 μM; NADPH; 37 °C, 40 min
Procedure: as §2

CYP1B1 = target: T4, CYP1B1 (Rattus norvegicus, UniProt Q64678); assay: Metabolite formation by recombinant rat CYP1B1; details: trazodone 4 μM; NADPH; 37 °C, 40 min
T4 sequence (Q64678 1-543): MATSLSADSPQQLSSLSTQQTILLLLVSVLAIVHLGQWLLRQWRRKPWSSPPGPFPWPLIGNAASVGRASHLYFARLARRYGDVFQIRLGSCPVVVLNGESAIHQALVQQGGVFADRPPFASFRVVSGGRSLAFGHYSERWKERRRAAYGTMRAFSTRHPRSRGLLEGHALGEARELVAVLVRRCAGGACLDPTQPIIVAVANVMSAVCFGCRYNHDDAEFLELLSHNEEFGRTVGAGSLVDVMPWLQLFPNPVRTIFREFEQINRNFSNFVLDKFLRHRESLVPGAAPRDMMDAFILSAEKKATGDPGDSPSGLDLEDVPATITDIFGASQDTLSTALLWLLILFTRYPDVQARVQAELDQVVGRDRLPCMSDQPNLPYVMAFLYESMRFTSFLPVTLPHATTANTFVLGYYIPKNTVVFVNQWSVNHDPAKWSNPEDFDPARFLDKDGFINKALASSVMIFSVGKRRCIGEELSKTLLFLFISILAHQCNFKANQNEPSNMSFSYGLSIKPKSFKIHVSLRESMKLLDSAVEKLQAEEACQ
Procedure: as §1

CYP3A5, sequence (P20815 whole entry): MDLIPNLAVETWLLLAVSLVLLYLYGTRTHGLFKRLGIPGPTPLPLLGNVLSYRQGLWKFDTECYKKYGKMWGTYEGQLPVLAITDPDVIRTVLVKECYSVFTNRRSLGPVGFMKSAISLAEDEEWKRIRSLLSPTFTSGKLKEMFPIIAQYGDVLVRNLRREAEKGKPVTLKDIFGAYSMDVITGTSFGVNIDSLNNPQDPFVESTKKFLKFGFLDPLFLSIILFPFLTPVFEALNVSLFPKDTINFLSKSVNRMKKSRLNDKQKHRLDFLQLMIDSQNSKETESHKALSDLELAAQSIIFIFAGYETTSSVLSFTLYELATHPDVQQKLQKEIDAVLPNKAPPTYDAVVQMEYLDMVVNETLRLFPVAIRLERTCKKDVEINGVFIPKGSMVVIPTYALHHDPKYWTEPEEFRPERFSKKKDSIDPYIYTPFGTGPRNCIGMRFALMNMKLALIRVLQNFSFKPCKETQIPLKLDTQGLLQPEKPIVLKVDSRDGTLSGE
CYP2C9, sequence (P11712 whole entry): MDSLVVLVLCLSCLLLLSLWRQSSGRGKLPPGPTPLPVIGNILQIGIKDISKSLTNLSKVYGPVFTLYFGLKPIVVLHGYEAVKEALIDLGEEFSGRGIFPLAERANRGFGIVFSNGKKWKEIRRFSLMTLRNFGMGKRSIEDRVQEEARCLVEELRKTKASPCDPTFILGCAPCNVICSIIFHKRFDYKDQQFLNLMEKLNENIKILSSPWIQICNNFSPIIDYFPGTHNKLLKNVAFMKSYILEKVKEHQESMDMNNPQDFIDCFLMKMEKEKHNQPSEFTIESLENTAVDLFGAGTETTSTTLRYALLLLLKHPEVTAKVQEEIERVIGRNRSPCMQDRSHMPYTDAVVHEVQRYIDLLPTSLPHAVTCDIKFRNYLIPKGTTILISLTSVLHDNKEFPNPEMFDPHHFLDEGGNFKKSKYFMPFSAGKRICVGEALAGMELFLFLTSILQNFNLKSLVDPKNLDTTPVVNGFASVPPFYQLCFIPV

O=c1n(CCCN2CCNCC2)nc2ccccn12 [Metabolite M15]
Formation of trazodone phase I metabolite by recombinant human FMO1 (as LC/MS peak areas) (FMO1): 0
Formation of trazodone phase I metabolite by recombinant human FMO3 (as LC/MS peak areas) (FMO3): 0
Formation of trazodone phase I metabolite by recombinant human CYP2C8 (as LC/MS peak areas) (CYP2C8): 26
Formation of trazodone phase I metabolite by recombinant human CYP2C9 (as LC/MS peak areas) (CYP2C9): 0
Formation of trazodone phase I metabolite by recombinant human CYP3A5 (as LC/MS peak areas) (CYP3A5): 3343
Formation of trazodone phase I metabolite by recombinant rat CYP1B1 (as LC/MS peak areas) (CYP1B1): 22

O=c1n(CCCO)nc2ccccn12 [Metabolite M20]
Formation of trazodone phase I metabolite by recombinant human FMO1 (as LC/MS peak areas) (FMO1): 0
Formation of trazodone phase I metabolite by recombinant human FMO3 (as LC/MS peak areas) (FMO3): 0
Formation of trazodone phase I metabolite by recombinant human CYP2C8 (as LC/MS peak areas) (CYP2C8): 0
Formation of trazodone phase I metabolite by recombinant human CYP2C9 (as LC/MS peak areas) (CYP2C9): 0
Formation of trazodone phase I metabolite by recombinant human CYP3A5 (as LC/MS peak areas) (CYP3A5): 108
Formation of trazodone phase I metabolite by recombinant rat CYP1B1 (as LC/MS peak areas) (CYP1B1): 94

Clc1cccc(N2CCNCC2)c1 [mCPP, m-chlorophenylpiperazine]
Formation of trazodone phase I metabolite by recombinant human FMO1 (as LC/MS peak areas) (FMO1): 6
Formation of trazodone phase I metabolite by recombinant human FMO3 (as LC/MS peak areas) (FMO3): 4
Formation of trazodone phase I metabolite by recombinant human CYP2C8 (as LC/MS peak areas) (CYP2C8): 327
Formation of trazodone phase I metabolite by recombinant human CYP2C9 (as LC/MS peak areas) (CYP2C9): 40
Formation of trazodone phase I metabolite by recombinant human CYP3A5 (as LC/MS peak areas) (CYP3A5): 16847
Formation of trazodone phase I metabolite by recombinant rat CYP1B1 (as LC/MS peak areas) (CYP1B1): 724
